# Measurements from ChEMBL document CHEMBL3632492, “Substituted 2-arylquinazolinones: Design, synthesis, and evaluation of cytotoxicity and inhibition of topoisomerases” (Eur J Med Chem, 2015).
# Tests used:
# HeLa = assay: Cytotoxicity against human HeLa cells measured after 2 days by MTT assay; type: functional, cell-based; conditions: 48 h
# [1] = biological target: DNA topoisomerase 2-alpha (Homo sapiens) (UniProt P11388); assay: Potency index, ratio of compound activity to etoposide activity for inhibition of recombinant human topoisomerase 2alpha at 20 uM
# [2] = biological target: DNA topoisomerase 2-alpha (Homo sapiens) (UniProt P11388); assay: Inhibition of recombinant human topoisomerase 2alpha mediated decatenation using kDNA as substrate at 100 uM incubated for 30 mins by agarose gel electrophoresis
# [3] = biological target: DNA topoisomerase 2-alpha (Homo sapiens) (UniProt P11388); assay: Potency index, ratio of compound activity to etoposide activity for inhibition of recombinant human topoisomerase 2alpha at 100 uM
# [4] = biological target: T1, DNA topoisomerase 1 (Homo sapiens) (UniProt P11387); assay: Inhibition of recombinant human topoisomerase 1 assessed as relaxation of supercoiled plasmid DNA pBR322 at 100 uM incubated for 30 mins by agarose gel electrophoresis
# T1 sequence (whole entry): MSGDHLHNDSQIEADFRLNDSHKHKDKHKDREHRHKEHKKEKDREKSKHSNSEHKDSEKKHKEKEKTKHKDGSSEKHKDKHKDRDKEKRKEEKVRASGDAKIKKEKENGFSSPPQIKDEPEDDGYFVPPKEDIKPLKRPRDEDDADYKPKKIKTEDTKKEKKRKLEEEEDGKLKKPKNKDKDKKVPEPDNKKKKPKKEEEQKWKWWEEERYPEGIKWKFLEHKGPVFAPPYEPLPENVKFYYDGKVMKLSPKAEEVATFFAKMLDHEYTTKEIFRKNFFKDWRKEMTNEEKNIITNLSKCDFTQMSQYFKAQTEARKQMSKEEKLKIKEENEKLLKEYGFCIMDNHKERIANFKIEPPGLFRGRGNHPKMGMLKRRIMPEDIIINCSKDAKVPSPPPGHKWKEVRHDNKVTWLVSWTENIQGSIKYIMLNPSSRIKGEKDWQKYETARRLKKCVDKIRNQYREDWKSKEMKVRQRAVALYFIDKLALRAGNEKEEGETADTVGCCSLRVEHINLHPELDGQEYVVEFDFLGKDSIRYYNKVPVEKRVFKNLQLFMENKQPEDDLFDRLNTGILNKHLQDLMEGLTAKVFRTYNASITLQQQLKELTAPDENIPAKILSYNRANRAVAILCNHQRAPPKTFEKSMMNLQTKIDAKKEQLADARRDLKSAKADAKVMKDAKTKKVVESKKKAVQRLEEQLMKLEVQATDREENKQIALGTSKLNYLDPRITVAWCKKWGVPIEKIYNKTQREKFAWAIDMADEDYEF
# [5] = biological target: T1, DNA topoisomerase 1 (Homo sapiens); assay: Potency index, ratio of compound activity to CPT activity for inhibition of recombinant human topoisomerase 1 at 100 uM
# [6] = biological target: DNA topoisomerase 2-alpha (Homo sapiens) (UniProt P11388); assay: Inhibition of recombinant human topoisomerase 2alpha assessed as relaxation of supercoiled plasmid DNA pBR322 at 100 uM incubated for 30 mins by agarose gel electrophoresis
# T47D = assay: Cytotoxicity against human T47D cells measured after 2 days by MTT assay; type: functional, cell-based; conditions: 48 h
# HCT-15 = assay: Cytotoxicity against human HCT15 cells measured after 2 days by MTT assay; type: functional, cell-based; conditions: HCT-15, 48 h
# [7] = biological target: T1, DNA topoisomerase 1 (Homo sapiens); assay: Potency index, ratio of compound activity to CPT activity for inhibition of recombinant human topoisomerase 1 at 20 uM
# [8] = biological target: DNA topoisomerase 2-alpha (Homo sapiens) (UniProt P11388); assay: Inhibition of recombinant human topoisomerase 2alpha assessed as relaxation of supercoiled plasmid DNA pBR322 at 20 uM incubated for 30 mins by agarose gel electrophoresis
# [9] = biological target: T1, DNA topoisomerase 1 (Homo sapiens); assay: Inhibition of recombinant human topoisomerase 1 assessed as relaxation of supercoiled plasmid DNA pBR322 at 20 uM incubated for 30 mins by agarose gel electrophoresis
# [10] = biological target: DNA topoisomerase 2-alpha (Homo sapiens) (UniProt P11388); assay: Inhibition of recombinant human topoisomerase 2alpha mediated decatenation using kDNA as substrate at 50 uM incubated for 30 mins by agarose gel electrophoresis
# DNA topoisomerase 2-alpha (Homo sapiens), sequence (P11388 whole entry): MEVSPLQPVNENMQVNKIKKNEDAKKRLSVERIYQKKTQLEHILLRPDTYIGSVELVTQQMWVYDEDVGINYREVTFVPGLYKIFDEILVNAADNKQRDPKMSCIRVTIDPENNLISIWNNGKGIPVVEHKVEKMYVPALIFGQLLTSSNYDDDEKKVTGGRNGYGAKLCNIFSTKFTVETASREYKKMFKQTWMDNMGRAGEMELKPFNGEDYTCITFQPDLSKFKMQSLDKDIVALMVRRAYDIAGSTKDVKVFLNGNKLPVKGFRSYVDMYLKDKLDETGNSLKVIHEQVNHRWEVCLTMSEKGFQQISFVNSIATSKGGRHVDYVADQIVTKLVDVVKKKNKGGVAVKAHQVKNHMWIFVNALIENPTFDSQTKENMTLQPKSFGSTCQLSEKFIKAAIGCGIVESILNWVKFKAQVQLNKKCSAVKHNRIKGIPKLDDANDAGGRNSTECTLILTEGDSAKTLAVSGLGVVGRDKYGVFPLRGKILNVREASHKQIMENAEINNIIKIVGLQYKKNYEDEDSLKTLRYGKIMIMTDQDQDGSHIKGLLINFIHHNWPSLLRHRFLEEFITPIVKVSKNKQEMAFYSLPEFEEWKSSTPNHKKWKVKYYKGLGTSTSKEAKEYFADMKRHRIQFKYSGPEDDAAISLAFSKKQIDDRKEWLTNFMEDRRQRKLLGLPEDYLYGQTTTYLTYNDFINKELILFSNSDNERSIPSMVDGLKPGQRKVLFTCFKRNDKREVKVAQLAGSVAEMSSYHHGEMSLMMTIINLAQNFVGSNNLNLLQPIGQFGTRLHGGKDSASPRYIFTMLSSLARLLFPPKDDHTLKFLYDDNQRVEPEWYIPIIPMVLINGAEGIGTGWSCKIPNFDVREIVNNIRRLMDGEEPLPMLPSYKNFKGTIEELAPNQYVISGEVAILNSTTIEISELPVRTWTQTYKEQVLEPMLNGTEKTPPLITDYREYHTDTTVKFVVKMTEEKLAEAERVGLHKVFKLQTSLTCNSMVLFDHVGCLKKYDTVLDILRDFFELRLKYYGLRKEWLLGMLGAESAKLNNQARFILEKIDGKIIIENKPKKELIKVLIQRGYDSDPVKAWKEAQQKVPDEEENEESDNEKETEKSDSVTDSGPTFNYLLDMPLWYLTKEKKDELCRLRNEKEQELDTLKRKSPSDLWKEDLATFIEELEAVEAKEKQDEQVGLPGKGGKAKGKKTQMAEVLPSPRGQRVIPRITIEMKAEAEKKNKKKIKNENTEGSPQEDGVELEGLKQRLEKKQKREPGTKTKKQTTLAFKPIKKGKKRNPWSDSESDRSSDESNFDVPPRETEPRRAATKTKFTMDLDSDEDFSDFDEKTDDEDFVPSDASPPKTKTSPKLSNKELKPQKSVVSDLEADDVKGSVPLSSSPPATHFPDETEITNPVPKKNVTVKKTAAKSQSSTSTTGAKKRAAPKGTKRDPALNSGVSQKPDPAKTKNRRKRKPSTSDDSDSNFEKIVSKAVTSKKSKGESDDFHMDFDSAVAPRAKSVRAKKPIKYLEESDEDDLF
SMILES,IC50 (HeLa),Ratio [1],inhibition [2],Ratio [3],inhibition [4],Ratio [5],inhibition [6],IC50 (T47D),IC50 (HCT-15),Ratio [7],inhibition [8],inhibition [9],inhibition [10]
Cc1ccc2c(=O)[nH]c(-c3ccccc3C)nc2c1,> 50 µM,0.62,32.4%,0.77,100%,1.29,61.4%,> 50 µM,11.9 µM,1.27,30.8%,39.2%,0%
Cc1ccc2c(=O)[nH]c(-c3ccccc3N(C)C)nc2c1,43.8 µM,0.84,,0.35,82.1%,0.19,28.1%,4.43 µM,12.8 µM,0.19,41.9%,5.3%,
Cc1cccc(-c2nc3cc(C)ccc3c(=O)[nH]2)c1,11.2 µM,0.5,,0.5,100%,1.29,40.4%,> 50 µM,21.1 µM,1.83,24.9%,56.3%,
Cc1c2ccncc2c(C)c2c1[nH]c1ccccc12,,,88.3%,,,,,,,,,,
COc1cccc(-c2nc3cc(C)ccc3c(=O)[nH]2)c1,8.94 µM,0.5,,0.54,100%,1.29,43.6%,> 50 µM,4.85 µM,2.6,25.2%,80%,
O=c1[nH]c(-c2cccc3ccccc23)nc2ccc(N3CCOCC3)cc12,0.12 µM,0.78,83.8%,0.58,100%,1.24,46.4%,> 50 µM,> 50 µM,0.62,39.2%,10.7%,3.2%
